Tests used:
KRAS G12S = KRAS G12S (Homo sapiens, UniProt P01116+P62937, G12S); assay: Ras-Raf disruption/FRET/MOA assay, KRAS G12S; format: biochemical; settings: disruption of BRAF RBD binding, with Cyclophilin A; read-out: KRAS G12S FRET IC50
Outline: (§1)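 Compounds promote a Cyclophilin A (25 μM) ternary complex with His6-KRAS-GMPPNP, which blocks binding of GST-BRAF^RBD (50 nM). Titration runs to a 30 μM top concentration, and loss of RAF binding is detected by TR-FRET.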

KRAS G12V = KRAS G12V (Homo sapiens, UniProt P01116+P62937, G12V); assay: Ras-Raf disruption/FRET/MOA assay, KRAS G12V; format: biochemical; settings: disruption of BRAF RBD binding, with Cyclophilin A; read-out: KRAS G12V FRET IC50
Outline: as §1

KRAS WT = KRAS WT (Homo sapiens, UniProt P01116+P62937); assay: Ras-Raf disruption/FRET/MOA assay, KRAS WT; format: biochemical; settings: disruption of BRAF RBD binding, with Cyclophilin A; read-out: KRAS WT FRET IC50
Outline: as §1

NRAS Q61K = molecular target: T1, NRAS Q61K (Homo sapiens, UniProt P01111+P62937, Q61K); assay: Ras-Raf disruption/FRET/MOA assay, NRAS Q61K; format: biochemical; settings: NRAS Q61K; read-out: NRAS Q61K FRET data IC50
T1 construct: His6
Text: (§2) Disruption of B-Raf Ras-Binding Domain (BRAF^RBD) Interaction with K-Ras by Compounds of the Invention (Also Called a FRET Assay or an MOA Assay)
(§3) Note—The following protocol describes a procedure for monitoring disruption of K-Ras G12C (GMP-PNP) binding to BRAF^RBD by a compound of the invention. This protocol may also be executed substituting other Ras proteins or nucleotides, such as K-Ras G12D and K-Ras G13D.
(§4) The purpose of this biochemical assay was to measure the ability of test compounds to facilitate ternary complex formation between a nucleotide-loaded K-Ras isoform and Cyclophilin A; the resulting ternary complex disrupts binding to a BRAF^RBD construct, inhibiting K-Ras signaling through a RAF effector.
(§5) In assay buffer containing 25 mM HEPES pH 7.3, 0.002% Tween20, 0.1% BSA, 100 mM NaCl and 5 mM MgCl2, tagless Cyclophilin A, His6-K-Ras-GMPPNP, and GST-BRAF^RBD were combined in a 384-well assay plate at final concentrations of 25 μM, 12.5 nM, and 50 nM, respectively. Compound was present in plate wells as a 10-point 3-fold dilution series starting at a final concentration of 30 μM. After incubation at 25° C. for 3 hours, a mixture of anti-His Eu-W1024 and anti-GST allophycocyanin was then added to assay sample wells at final concentrations of 10 nM and 50 nM, respectively, and the reaction incubated for an additional 1.5 hours. […] Compounds that facilitate disruption of a K-Ras:RAF complex were identified as those eliciting a decrease in the TR-FRET ratio relative to DMSO control wells.

AsPC-1 (K-Ras G12D) [1] = assay: Potency assay: pERK in AsPC-1 cells; format: cell-based; settings: Homo sapiens, ASPC1; AsPC-1 cells, K-Ras G12D; read-out: pERK EC50 (AsPC-1 KRAS G12D)
KRAS G13D = KRAS G13D (Homo sapiens, UniProt P01116+P62937, G13D); assay: Ras-Raf disruption/FRET/MOA assay, KRAS G13D; format: biochemical; settings: disruption of BRAF RBD binding, with Cyclophilin A; read-out: KRAS G13D FRET IC50
Outline: as §1

KRAS G12C = KRAS G12C (Homo sapiens, UniProt P01116+P62937, G12C); assay: Ras-Raf disruption/FRET/MOA assay, KRAS G12C; format: biochemical; settings: disruption of BRAF RBD binding, with Cyclophilin A; read-out: KRAS G12C FRET IC50
Outline: as §1

KRAS G13C = KRAS G13C (Homo sapiens, UniProt P01116+P62937, G13C); assay: Ras-Raf disruption/FRET/MOA assay, KRAS G13C; format: biochemical; settings: disruption of BRAF RBD binding, with Cyclophilin A; read-out: KRAS G13C FRET IC50
Outline: as §1

KRAS Q61H = KRAS Q61H (Homo sapiens, UniProt P01116+P62937, Q61H); assay: Ras-Raf disruption/FRET/MOA assay, KRAS Q61H; format: biochemical; settings: KRAS Q61H; read-out: KRAS Q61H FRET data IC50
Text: as §2, §3, §4, §5

NRAS Q61R = molecular target: T2, NRAS Q61R (Homo sapiens, UniProt P01111+P62937, Q61R); assay: Ras-Raf disruption/FRET/MOA assay, NRAS Q61R; format: biochemical; settings: NRAS Q61R; read-out: NRAS Q61R FRET data IC50
T2 construct: His6
Text: as §2, §3, §4, §5

KRAS G12D = KRAS G12D (Homo sapiens, UniProt P01116+P62937, G12D); assay: Ras-Raf disruption/FRET/MOA assay, KRAS G12D; format: biochemical; settings: disruption of BRAF RBD binding, with Cyclophilin A; read-out: KRAS G12D FRET IC50
Outline: as §1

NCI-H358 (K-Ras G12C) = assay: CellTiter-Glo cell viability assay, H358; format: cell-based; settings: Homo sapiens, NCI-H358, 120 h, NCI-H358, K-Ras G12C, 5-day treatment; read-out: H358 Cell Viability IC50
Outline: (§6)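 Compounds dispensed directly onto seeded AsPC-1 (K-Ras G12D) or NCI-H358 (K-Ras G12C) cells; CellTiter-Glo luminescence read on day 5 after ~30 min equilibration to room temperature. Signal normalized to DMSO average (%) and fit by four-parameter logistic.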

AsPC-1 (K-Ras G12D) [2] = assay: CellTiter-Glo cell viability assay, AsPC-1; format: cell-based; settings: Homo sapiens, ASPC1, 120 h, AsPC-1, K-Ras G12D, 5-day treatment; read-out: AsPC-1 Cell Viability IC50
Outline: as §6

NRAS WT = molecular target: T3, NRAS WT (Homo sapiens, UniProt P01111+P62937); assay: Ras-Raf disruption/FRET/MOA assay, NRAS WT; format: biochemical; settings: NRAS WT; read-out: NRAS WT FRET data IC50
T3 construct: His6
Text: as §2, §3, §4, §5

NRAS G12C = molecular target: T4, NRAS G12C (Homo sapiens, UniProt P01111+P62937, G12C); assay: Ras-Raf disruption/FRET/MOA assay, NRAS G12C; format: biochemical; settings: NRAS G12C; read-out: NRAS G12C FRET data IC50
T4 construct: His6
Outline: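 Disruption of Ras:RAF binding was read as a drop in TR-FRET ratio versus DMSO controls. The buffer was 25 mM HEPES pH 7.3, 0.002% Tween20, 0.1% BSA, 100 mM NaCl and 5 mM MgCl2. Compounds were tested as a 10-point 3-fold dilution series from 30 μM. Detection used 10 nM anti-His Eu-W1024 and 50 nM anti-GST allophycocyanin.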

KRAS G13D, sequence (P01116 1-169 isoform P01116-2 G13D limits assumed): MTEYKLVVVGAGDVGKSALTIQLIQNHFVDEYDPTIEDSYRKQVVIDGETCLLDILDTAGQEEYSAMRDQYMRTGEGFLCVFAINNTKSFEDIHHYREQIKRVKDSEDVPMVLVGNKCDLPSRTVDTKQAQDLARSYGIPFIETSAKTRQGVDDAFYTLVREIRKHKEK
KRAS G13D, sequence (P62937 whole entry): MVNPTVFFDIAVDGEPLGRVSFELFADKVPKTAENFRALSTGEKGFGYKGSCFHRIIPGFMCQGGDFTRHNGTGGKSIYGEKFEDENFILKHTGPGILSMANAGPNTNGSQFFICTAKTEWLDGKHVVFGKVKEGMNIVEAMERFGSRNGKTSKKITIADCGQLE
KRAS WT, sequence (P01116 1-169 isoform P01116-2 limits assumed): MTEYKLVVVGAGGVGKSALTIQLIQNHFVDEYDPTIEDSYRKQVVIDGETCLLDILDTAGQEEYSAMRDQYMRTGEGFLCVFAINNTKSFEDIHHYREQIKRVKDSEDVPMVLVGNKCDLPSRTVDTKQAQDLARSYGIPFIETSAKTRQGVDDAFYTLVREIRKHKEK
KRAS WT, sequence (P62937 whole entry): as the sequence (P62937 whole entry) above
KRAS Q61H, sequence (P01116 1-169 isoform P01116-2 Q61H limits assumed): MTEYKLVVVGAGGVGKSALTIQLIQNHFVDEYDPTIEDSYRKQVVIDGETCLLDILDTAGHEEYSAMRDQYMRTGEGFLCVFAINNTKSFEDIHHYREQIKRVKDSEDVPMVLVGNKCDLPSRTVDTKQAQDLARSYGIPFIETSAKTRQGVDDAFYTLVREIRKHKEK
KRAS Q61H, sequence (P62937 whole entry): as the sequence (P62937 whole entry) above
KRAS G12S, sequence (P01116 1-169 isoform P01116-2 G12S limits assumed): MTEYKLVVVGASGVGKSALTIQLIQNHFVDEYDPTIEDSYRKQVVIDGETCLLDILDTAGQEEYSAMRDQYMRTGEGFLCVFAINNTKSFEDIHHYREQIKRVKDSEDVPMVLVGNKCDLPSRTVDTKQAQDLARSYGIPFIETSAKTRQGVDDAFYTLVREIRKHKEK
KRAS G12S, sequence (P62937 whole entry): as the sequence (P62937 whole entry) above
KRAS G12V, sequence (P01116 1-169 isoform P01116-2 G12V limits assumed): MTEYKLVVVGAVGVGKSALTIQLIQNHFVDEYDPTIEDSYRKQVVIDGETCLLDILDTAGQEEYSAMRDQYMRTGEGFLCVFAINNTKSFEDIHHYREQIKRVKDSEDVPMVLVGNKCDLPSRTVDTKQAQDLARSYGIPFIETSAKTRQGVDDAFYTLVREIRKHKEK
KRAS G12V, sequence (P62937 whole entry): as the sequence (P62937 whole entry) above
T1 sequence (P01111 whole entry Q61K): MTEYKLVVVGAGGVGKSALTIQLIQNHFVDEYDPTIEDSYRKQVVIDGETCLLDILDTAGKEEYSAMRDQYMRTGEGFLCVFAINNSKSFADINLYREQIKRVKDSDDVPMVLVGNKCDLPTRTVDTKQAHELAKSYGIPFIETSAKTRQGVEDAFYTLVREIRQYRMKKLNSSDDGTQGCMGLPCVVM
T1 sequence (P62937 whole entry): as the sequence (P62937 whole entry) above
KRAS G12C, sequence (P01116 1-169 isoform P01116-2 G12C limits assumed): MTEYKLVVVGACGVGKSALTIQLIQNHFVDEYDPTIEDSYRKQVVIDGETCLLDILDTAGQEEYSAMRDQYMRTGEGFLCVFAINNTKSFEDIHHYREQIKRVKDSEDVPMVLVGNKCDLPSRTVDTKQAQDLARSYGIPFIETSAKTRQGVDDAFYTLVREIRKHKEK
KRAS G12C, sequence (P62937 whole entry): as the sequence (P62937 whole entry) above
T2 sequence (P01111 whole entry Q61R): as the sequence (P01111 whole entry Q61K) above, with K61R counted along it
T2 sequence (P62937 whole entry): as the sequence (P62937 whole entry) above
T3 sequence (P01111 whole entry): as the sequence (P01111 whole entry Q61K) above, with K61Q counted along it
T3 sequence (P62937 whole entry): as the sequence (P62937 whole entry) above
KRAS G12D, sequence (P01116 1-169 isoform P01116-2 G12D limits assumed): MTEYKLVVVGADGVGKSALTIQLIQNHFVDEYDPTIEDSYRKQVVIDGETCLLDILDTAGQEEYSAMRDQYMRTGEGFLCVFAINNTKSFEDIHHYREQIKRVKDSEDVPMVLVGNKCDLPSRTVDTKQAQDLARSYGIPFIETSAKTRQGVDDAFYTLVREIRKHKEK
KRAS G12D, sequence (P62937 whole entry): as the sequence (P62937 whole entry) above
T4 sequence (P01111 whole entry G12C): as the sequence (P01111 whole entry Q61K) above, with G12C, K61Q counted along it
T4 sequence (P62937 whole entry): as the sequence (P62937 whole entry) above
KRAS G13C, sequence (P01116 1-169 isoform P01116-2 G13C limits assumed): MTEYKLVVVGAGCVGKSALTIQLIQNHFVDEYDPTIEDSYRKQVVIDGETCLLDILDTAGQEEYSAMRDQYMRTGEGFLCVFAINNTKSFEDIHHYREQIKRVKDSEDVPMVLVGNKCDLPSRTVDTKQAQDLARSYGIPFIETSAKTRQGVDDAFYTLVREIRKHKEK
KRAS G13C, sequence (P62937 whole entry): as the sequence (P62937 whole entry) above

SMILES | IC50 (KRAS G12S) [nM] | IC50 (KRAS G12V) [nM] | IC50 (KRAS WT) [nM] | IC50 (NRAS Q61K) [nM] | EC50 (AsPC-1 (K-Ras G12D) [1]) [nM] | IC50 (KRAS G13D) [nM] | IC50 (KRAS G12C) [nM] | IC50 (KRAS G13C) [nM] | IC50 (KRAS Q61H) [nM] | IC50 (NRAS Q61R) [nM] | IC50 (KRAS G12D) [nM] | IC50 (NCI-H358 (K-Ras G12C)) [nM] | IC50 (AsPC-1 (K-Ras G12D) [2]) [nM] | IC50 (NRAS WT) [nM] | IC50 (NRAS G12C) [nM]
CCn1c(-c2cccnc2[C@H](C)OC)c2c3cc(ccc31)-c1csc(n1)C[C@H](NC(=O)[C@H](C(C)C)N(C)C(=O)N1C3CCC1CN(C(=O)[C@@H]1CN1)C3)C(=O)N1CCC[C@H](N1)C(=O)OCC(C)(C)C2 [Compound 304] | 100 to 1000 | 100 to 1000 | 100 to 1000 | 100 to 1000 | < 5000 | 1000 to 10000 | 100 to 1000 | 1000 to 10000 | 10 to 100 | 100 to 1000 | 100 to 1000 | 100 to 1000 | 1000 to 10000 | 100 to 1000 | 100 to 1000
CCn1c(-c2cccnc2[C@H](C)OC)c2c3cc(ccc31)-c1csc(n1)C[C@H](NC(=O)[C@H](C(C)C)N(C)C(=O)N1C3CCC1CN(C(=O)[C@H]1CN1)C3)C(=O)N1CCC[C@H](N1)C(=O)OCC(C)(C)C2 [Compound 303] | 100 to 1000 | 100 to 1000 | 100 to 1000 | 100 to 1000 | < 5000 | 100 to 1000 | 100 to 1000 | 100 to 1000 | 10 to 100 | 100 to 1000 | 100 to 1000 | 10 to 100 | 100 to 1000 | 100 to 1000 | 100 to 1000
CCn1c(-c2cccnc2[C@H](C)OC)c2c3cc(ccc31)-c1csc(n1)C[C@H](NC(=O)[C@H](C1CCCC1)N1CC[C@]3(CCN(C(=O)[C@H]4CN4)C3)C1=O)C(=O)N1CCC[C@H](N1)C(=O)OCC(C)(C)C2 [Compound 319] | 1000 to 10000 | 1000 to 10000 | 1000 to 10000 | 100 to 1000 | < 5000 | 1000 to 10000 | 10 to 100 | 100 to 1000 | 100 to 1000 | 1000 to 10000 | 1000 to 10000 | < 10 | 100 to 1000 | 1000 to 10000 | 10 to 100
CCn1c(-c2cccnc2[C@H](C)OC)c2c3cc(ccc31)-c1csc(n1)C[C@H](NC(=O)[C@H](C(C)C)N(C)C(=O)N1CCC[C@@H](N(C)C(=O)[C@@H]3CN3)C1)C(=O)N1CCC[C@H](N1)C(=O)OCC(C)(C)C2 (atropisomer, axis not shown) [Compound 291] | 100 to 1000 | 100 to 1000 | 10 to 100 | 10 to 100 | < 5000 | 100 to 1000 | 10 to 100 | 100 to 1000 | 10 to 100 | 100 to 1000 | 100 to 1000 | 10 to 100 | 100 to 1000 | 10 to 100 | 10 to 100
CCn1c(-c2cccnc2[C@H](C)OC)c2c3cc(ccc31)-c1cc(O)cc(c1)C[C@H](NC(=O)[C@H](C(C)C)N1CO[C@]3(CCN(C(=O)[C@H]4CN4)C3)C1=O)C(=O)N1CCC[C@H](N1)C(=O)OCC(C)(C)C2 [Compound 231] | 10 to 100 | 10 to 100 | 10 to 100 | 10 to 100 | < 5000 | 10 to 100 | < 10 | < 10 | < 10 | 100 to 1000 | 10 to 100 | < 10 | 100 to 1000 | 10 to 100 | < 10
CCn1c(-c2cccnc2[C@H](C)OC)c2c3cc(ccc31)-c1csc(n1)C[C@H](NC(=O)[C@H](C(C)C)N(C)C(=O)N1CCC[C@H](N(C)C(=O)[C@H]3CN3)C1)C(=O)N1CCC[C@H](N1)C(=O)OCC(C)(C)C2 (atropisomer, axis not shown) [Compound 290] | 100 to 1000 | 100 to 1000 | 100 to 1000 | 100 to 1000 | < 5000 | 1000 to 10000 | 100 to 1000 | 100 to 1000 | 100 to 1000 | 100 to 1000 | 1000 to 10000 | 10 to 100 | 1000 to 10000 | 100 to 1000 | 100 to 1000

From US11739074B2, “Ras inhibitors” (Revolution Medicines, Inc., priority 2019, dated 2023)
